Laboratory results reported in publication PMC8179002, “Inhibitors of thiol-mediated uptake” (Chemical Science, 2020).
Where two headings read alike, the source gives them in different places.

Tests used:
[1] = Relative cell viability in HCHT screening (propidium iodide negative nuclei count); assay type: cell-based; conditions: human; for GI50: HeLa, removal, tinc 0.5 h with 1 (10 µM), read-out: GI50, concentration causing 50% cell growth inhibition
Description: (§1) With COCs 1 and 2 as cell-penetrating reporters, a fully automated, fluorescent microscopy image-based high-content high-throughput (HCHT)[19] inhibitor screening assay was developed. HeLa cells in multiwell plates are incubated with a reporter at constant and inhibitors at varying concentrations and incubation times. Hindered reporter uptake then causes decrease of fluorescence inside of cells (Fig. 3a). Automated data analysis[19] was established to extract average fluorescence intensity per cell and, at the same time, cell viability from propidium iodide negative nuclei count (Fig. 3 and S3–S6 ^†). Standard assay conditions consisted of pre-incubation of HeLa cells with inhibitors for different periods of time, followed by the removal of inhibitors and the addition of reporters, thus excluding possible interactions between the two in the extracellular environment. In alternative co-incubation conditions, inhibitors were not removed before the addition of reporters to allow for eventual interactions between the two.
To be able to extract the fluorescent integrated intensity information (sum of the intensities of all the pixels included in the mask) from the green channel for live cell only, the image analysis pipeline contains several steps of cell filtering and selection:
1) Firstly, PI is used to stain any remaining nuclei of dead cell. In the analysis pipeline, all the “dead” nuclei are detected based on their fluorescent intensity in the PI channel (Figure […]
Fig. S4 (A) PI positive nuclei mask (fluorescent intensity threshold of 1000). (B) Overlap image of dead nuclei mask and original all cell body mask. (C) Resulting cell mask after removing any cell marked by a dead nucleus, new mask is called “Live Cell”. Scale bar: 50 μm.
2) Elimination of non-full cells from the border of the image is performed, to avoid inaccurate fluorescent integrated intensity quantification (fluorescent integrated intensity = sum of intensity of all the pixel of the object) (Figure S5).
(1 picture or pasted object on this page, not shown here)
4.3. HCHT Inhibitor Screening with ETP as Reporter […]
(§2) Relative cell viability (RV) for each condition in the presence of inhibitors were calculated using the count value of living cells by dividing the count value of living cells with addition of reporter 1, Hoechst 33342 and PI, for each set of experiments. Duplicates were performed for each condition. The resulting dependence of the relative cell viability (RVrel) to the concentration of inhibitors (cinhibitor) was plotted and fitted with Equation (S2) to retrieve the concentration causing 50% cell growth inhibition (GI50) value and the Hill coefficient (n).
RVrel = 1 / (1 + (GI50 / cinhibitor)n) (S2)
Note: Reporter 1 were not toxic for 1 h at 10 μM.S2 Also in this study, the count value of living cells with addition of reporter 1, Hoechst 33342 and PI is always similar to that of living cells with only addition of Hoechst 33342 and PI.
as §2, with “with” for “in the presence of”, “2,” for “1,”
Note: Reporter 2 were not toxic for 24 h at 10 μM.S3 Also in this study, the count value of living cells with addition of reporter 2, Hoechst 33342 and PI is always similar to that of living cells with only addition of Hoechst 33342 and PI.
4.4.1. Screening with Disulfides as Inhibitors
4.4.1.1. Screening with ETP as Inhibitors
Fig. S35 Automatically analyzed HCHT data showing fluorescence intensity (filled symbols) and relative viability (empty symbols) of HeLa cells after pre-incubation with 3 for 1 h (blue […]

[2] = system: cellular uptake of 1 in HeLa Kyoto cells; assay: cells; assay type: cell-based; conditions: HeLa; for IC50 / minimal effective concentration: HeLa Kyoto, removal, tinc 0.5 h with 1 (10 µM); for IC50: read-out: IC50, inhibition of cellular uptake of 1; for minimal effective concentration: read-out: MIC, inhibition of cellular uptake of 1; for MIC (concentration that causes ∼15% reduction of reporter uptake), against reporter 1: pre-incubation time not given (Fig. 2: 1 h pre-incubation, 30 min with reporter; some 15 min)
Description: as §1
4. High-Content High-Throughput (HCHT) Inhibitor Screening
4.1. General Procedure for HCHT Inhibitor Screening
4.1.1. Pre-Incubation of Inhibitors
HeLa Kyoto cells were seeded at 1.2 ×10^4 cells/well in FluoroBrite DMEM + 10% FBS on μ-Plate 96-well Black ibiTreat sterile and kept at 37 °C with 5% CO2 overnight. Next day, serial dilutions of the inhibitors in PBS (10x final concentration), reporter 1 or 2 (100 μM in PBS) and a solution of Hoechst 33342 (100 μg/mL) and PI (10 μg/mL) in PBS were prepared freshly in a 96-well V-bottom plate. Then, cells were washed with PBS ([…]) and the media was exchanged to FluoroBrite DMEM (4 x 150 μL/well) using a plate washer (Biotek EL406®), keeping always a final volume of 135 μL/well. The inhibitor solutions from the V-bottom plate were added to the cells (15 μL/well, 10x final concentration in PBS) using an electronic multichannel pipettes to reach a final volume of 150 μL/well. Cells were incubated for the time of interest (for details of each inhibitors, see Section 4.3 and 4.4) at 37 °C with 5%
CO2. After this, cells were washed again using the plate washer and reporter solution 1 or 2 from the V-bottom plate was added (15 μL/well) using an electronic multichannel pipettes to reach a final volume of 150 μL/well and a final concentration of 10 μM, except for the control wells, where only PBS was added (15 μL/well). After 30 min of incubation at 37 °C with 5% CO2, the plate was washed again using the plate washer. Then, the solution of Hoechst 33342 and PI from V-bottom plate was added (15 μL/well) using an electronic multichannel pipettes to reach a final volume of 150 μL/well. After 15 min of incubation at 37 °C with 5% CO2, the plate was washed one last time and the cells were kept in clean FluoroBrite DMEM. During imaging, samples were kept at 37 °C with 5% CO2 in the microscope.
4.1.2. Co-Incubation of Inhibitors and Reporters […]
serial dilutions of the inhibitors in PBS (10x final concentration), reporter 1 or 2 (110 μM in […]
freshly in a 96-well V-bottom plate. Then, cells were washed with the plate washer. The inhibitor solutions from the V-bottom plate were added to the cells (15 μL/well, 10x final concentration in PBS) using an electronic multichannel pipettes to reach a final volume of 150 μL/well. Cells were incubated for the time of interest (for details of each inhibitors, see Section 4.3 and 4.4) at 37 °C with 5% CO2. Reporter solution 1 or 2 from V-bottom plate was then added (15 μL/well) using an electronic multichannel pipettes to reach a final volume of 165 μL/well and a final concentration of 10 μM 30 min before the next washing process, except for the control wells, where only PBS was added (15 μL/well). The plate was washed again using the plate washer. The solution of Hoechst 33342 and PI from V-bottom plate was added (15 μL/well) using an electronic multichannel pipettes to reach a final volume of 150 μL/well. After […]

[3] = 0.5 h, tpre 0.5 h with inhibitor
[4] = 0.25 h, tpre 0.25 h with inhibitor
[5] = GI50, concentration causing 50% cell growth inhibition

Row | SMILES | GI50 ([1]; tpre 0.5 h with inhibitor) | GI50 ([1]; tpre 1 h with inhibitor) | GI50 ([1]; tpre 2 h with inhibitor) | GI50 ([1]; tpre 4 h with inhibitor) | IC50 [2, 3] | minimal effective concentration [2, 3] | minimal effective concentration ([2]; 1 h, tpre 1 h with inhibitor) | minimal effective concentration ([2]; 2 h, tpre 2 h with inhibitor) | minimal effective concentration ([2]; 4 h, tpre 4 h with inhibitor) | IC50 ([2]; tpre 1 h with inhibitor) | IC50 ([2]; tpre 2 h with inhibitor) | IC50 ([2]; tpre 4 h with inhibitor) | GI50 ([1]; tpre 0.25 h with inhibitor) | minimal effective concentration [2, 4] | IC50 ([2]; tpre 0.25 h with inhibitor) | MIC (concentration that causes ∼15% reduction of reporter uptake), against reporter 1 [2] | GI50 at 0.5 h [1, 5] | GI50 at 1 h [1, 5] | Inhibition of uptake of reporter 1, in words [2] | GI50 at 2 h [1, 5]
1 | O=C(O)CN1C(=O)C2SSC1C(=O)N2CCOc1ccccc1 (stereo not drawn) [compound 5] | 10.3 ± 0.4 µM | 7 ± 0.6 µM | ~4.7 µM | ~4.1 µM | 1.1 ± 0.05 µM | 0.1 µM | 0.1 µM | 0.1 µM | 0.1 µM | 0.86 ± 0.06 µM | 0.98 ± 0.07 µM | 1.42 ± 0.26 µM |  |  |  |  |  |  |  | 
2 | O=C(CN1C(=O)C2SSC1C(=O)N2CCOc1ccccc1)NCCS(=O)(=O)O (stereo not drawn) [compound 8] | > 100 µM | > 100 µM | > 100 µM |  | > 100 µM | 10 µM | 2 µM | 6 µM |  | > 100 µM | > 100 µM |  |  |  |  |  |  |  |  | 
3 | COCCOCCOCCNC(=O)c1ccc2c(c1)SSSSS2 [compound 10] | ~18 µM | ~10 µM | ~7 µM |  | 10.4 ± 0.3 µM | 6.5 µM | 7 µM | 3.5 µM |  | 10.1 ± 0.1 µM | > 5 µM |  |  |  |  |  |  |  |  | 
4 | CS(=O)(=O)c1nc2ccccc2o1 [compound 11] | 138 ± 42 µM | 97 ± 8 µM |  |  | 43.3 ± 3.9 µM | 15 µM | 8 µM |  |  | 38.9 ± 4.2 µM |  |  | > 200 µM | 18 µM | 84 ± 8.2 µM | ≈ 15 μM |  |  |  | 
5 | CCN1C(=O)C2SSC1C(=O)N2CC(=O)NCC[N+](C)(C)C (stereo not drawn) [compound 12] | > 100 µM | > 100 µM | > 100 µM |  | > 100 µM | 30 µM | 30 µM | 30 µM |  | > 100 µM | > 100 µM |  |  |  |  | ≈ 30 μM |  |  |  | 
6 | CS(=O)(=O)c1nnc(-c2ccccc2)o1 [compound 14] | 410 ± 99 µM |  |  |  | 204 ± 63 µM | 20 µM |  |  |  |  |  |  | > 500 µM | 40 µM | 137 ± 28 µM |  |  |  |  | 
7 | O=C(O)c1cc(SSc2ccc([N+](=O)[O-])c(C(=O)O)c2)ccc1[N+](=O)[O-] [compound 20, 5,5’-Dithiobis(2-nitrobenzoic acid), reference compound] |  |  |  |  |  | 200 µM | 500 µM |  |  |  |  |  |  |  |  |  | > 10000 µM | > 10000 µM | minor inhibition up to around 2 mM, which disappeared again at higher concentrations | 
8 | CS(=O)(=O)c1nc2ccccc2s1 [compound 21] | > 500 µM | > 500 µM |  |  | > 500 µM | 100 µM | 300 µM |  |  | > 500 µM |  |  | > 500 µM | 300 µM | > 500 µM | ≈ 300 μM |  |  |  | 
9 | O=C(O)C1CS[S+]([O-])C1 (stereo not drawn) [compound 23] |  | > 2000 µM | 1780 ± 120 µM | 1470 ± 70 µM |  |  | 1000 µM | 1000 µM | 900 µM | > 2000 µM | > 2000 µM | > 1000 µM |  |  |  |  |  |  |  | 
10 | O=C(O)CNC(=O)c1ccc2c(c1)S[S+]([O-])S2 (stereo not drawn) [compound 24] | > 20 µM | > 20 µM | > 20 µM |  | > 20 µM | > 20 µM | > 20 µM | > 20 µM |  | > 20 µM | > 20 µM |  |  |  |  |  |  |  |  | 
11 | C=CCS[S+]([O-])CC=C (stereo not drawn) [compound 25, allicin, reference compound] |  |  |  |  |  |  | > 500 µM | > 500 µM |  | > 500 µM | > 500 µM |  |  |  |  |  |  | > 500 µM | disappointing | > 500 µM
